The subject of one assay is HCV genotype 1b replicon. Nature of the assay: HCV replicon assay, genotype 1b replicon EC50. In kind it is cell-based, Hepatitis C virus. Conditions: genotype 1b replicon, read-out: EC50 [gt-1b]. Here is the method:
Measuring Compound Inhibitory Potency (Genotype 1b Replicon EC50 (nM))
Measurement of inhibition by compounds was performed using the HCV replicon system. Several different replicons encoding different HCV genotypes or mutations were used. In addition, potency measurements were made using different formats of the replicon assay, including different ways of measurements and different plating formats. See Jan M. Vrolijk et al., A replicons-based bioassay for the measurement of interferons in patients with chronic hepatitis C, 110 J. VIROLOGICAL METHODS 201 (2003); Steven S. Carroll et al., Inhibition of Hepatitis C Virus RNA Replication by 2′-Modified Nucleoside Analogs, 278(14) J. BIOLOGICAL CHEMISTRY 11979 (2003). However, the underlying principles are common to all of these determinations, and are outlined below.
Stable neomycin phosphotransferase encoding replicon-harboring cell lines were used, so all cell lines were maintained under G418 selection prior to the assay. In some cases the cell lines encoded a luciferase:Neo^r fusion and could be assayed either directly by determination of RNA copy number, or indirectly through measurement of the luciferase activity.
To initiate an assay, replicon cells were plated in the presence of a dilution series of test compound in the absence of G418. Typically, the assays were performed in a 96-well plate format for manual operation, or a 384 well plate in an automated assay. Replicon cells and compound were incubated for 24-48 hours, depending on the assay. At the end of the assay, cells are washed free of media and compound and then lysed. For direct quantitation, RNA levels were measured by ^32P-probe hybridization and protection, or in a TAQMAN based assay and normalized to cellular cyclophilin A RNA levels. In some cases, luciferase activity was measured using a conventional luciferase assay. In all cases EC50 determinations were calculated as a percent of a DMSO control by fitting the data to a four parameter fit function.
On the technique in general: In antiviral work, replicon cells carry a viral genome segment that copies itself.

Assay [1] concerns the target HCV NS3/4A protease genotype 1b (Hepatitis C virus genotype 1b, UniProt P26663). Nature of the assay: HCV NS3/4A protease time-resolved fluorescence (TRF) assay, Ki against genotype 1b. In kind it is biochemical. The essentials:
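Enzyme 0.2 nM 1b / 0.4 nM A156T / 0.025 nM 3a; 30 min preinc. w/ cpd; 25 nM TRF peptide; 2.5 h RT; ex 340/em 615 time-delayed; 4-param IC50 → Ki = IC50/(1+[S]/KM).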

Like-named read-outs stand apart in the source and are kept apart here. Bounds are passed on as bounds.

For `CC(C)(C)OC(=O)N[C@H]1CCCCC/C=C\[C@@H]2C[C@@]2(C(=O)NS(=O)(=O)C2(C)CC2)NC(=O)[C@@H]2C[C@@]3(CCc4c(c(-c5cccc(F)c5)nc5ccccc45)O3)CN2C1=O` [Example 14, tert-Butyl (2S,6S,13aS,14aR,16aS,Z)-5′-(3-fluorophenyl)-14a-(1-methylcyclopropylsulfonylcarbamoyl)-5,16-dioxo-1′,2′,3,5,6,7,8,9,10,11,13a,14,14a,15,16,16a-hexadecahydro-1H-spiro[cyclopropa[e]pyrrolo[1,2-a][1,4]diazacyclopentadecine-2,3′-pyrano[2,3-c]quinoline]-6-ylcarbamate], the EC50 in the assay on HCV genotype 1b replicon (Hepatitis C virus) worked out at 6.5 nM.
Same read-out and setting: then `CC1(S(=O)(=O)NC(=O)[C@@]23C[C@H]2/C=C\CCCCC[C@H](NC(=O)NC2CCCC2)C(=O)N2C[C@@]4(CCc5c(c(-c6cccc(F)c6)nc6ccccc56)O4)C[C@H]2C(=O)N3)CC1` [Example 82, (2R,6S,12Z,13aS,14aR,16aS)-6-[(cyclopentylcarbamoyl)amino]-5′-(3-fluorophenyl)-N-[(1-methylcyclopropyl)sulfonyl]-5,16-dioxo-1,1′,2′,6,7,8,9,10,11,13a,14,15,16,16a-tetradecahydrospiro[cyclopropa[e]pyrrolo[1,2-a][1,4]diazacyclopentadecine-2,3′-pyrano[2,3-c]quinoline]-14a(5H)-carboxamide], with 4.25 nM.
`COc1ccc2nc(C(F)(F)F)c3c(c2c1)[C@H](OC(=O)NS(=O)(=O)C1(C)CC1)C[C@]1(C[C@H]2C(=O)N[C@]4(C(=O)NS(=O)(=O)C5(C)CC5)C[C@H]4/C=C\CCCCC[C@H](NC(=O)OC(C)(C)C)C(=O)N2C1)O3` [Example 52, tert-Butyl ((1′R,2S,6S,13aS,14aR,16aS,Z)-9′-methoxy-14a-(((1-methylcyclopropyl)sulfonyl)carbamoyl)-1′-((((1-methylcyclopropyl)sulfonyl)carbamoyl)oxy)-5,16-dioxo-5′-(trifluoromethyl)-1′,2′,3,5,6,7,8,9,10,11,13a,14,14a,15,16,16a-hexadecahydro-1H-spiro[cyclopropa[e]pyrrolo[1,2-a][1,4]diazacyclopentadecine-2,3′-pyrano[2,3-c]quinolin]-6-yl)carbamate]: the EC50 in the assay with HCV genotype 1b replicon turned out to be 1.77 nM.
`CC(C)(C)OC(=O)N[C@H]1CCCCC/C=C\[C@@H]2C[C@@]2(C(=O)O)NC(=O)[C@@H]2C[C@]3(CCc4c(c(-c5cccc(F)c5)nc5ccccc45)O3)CN2C1=O` [Example 77, (2R,6S,12Z,13aS,14aR,16aS)-6-[(tert-butoxycarbonyl)amino]-5′-(3-fluorophenyl)-5,16-dioxo-1,1′,2′,6,7,8,9,10,11,13a,14,15,16,16a-tetradecahydrospiro[cyclopropa[e]pyrrolo[1,2-a][1,4]diazacyclopentadecine-2,3′-pyrano[2,3-c]quinoline]-14a(5H)-carboxylic acid]: the EC50 with HCV genotype 1b replicon (Hepatitis C virus) is above 100 nM.
The same measure, in the same setting: the same measure for `CC(C)(C)OC(=O)N[C@H]1CCCCC/C=C\[C@@H]2C[C@@]2(C(=O)NS(=O)(=O)C2(C)CC2)NC(=O)[C@@H]2C[C@]3(CCc4c(c(-c5cccc(F)c5)nc5ccccc45)O3)CN2C1=O` [Example 13, tert-Butyl (2R,6S,13aS,14aR,16aS,Z)-5′-(3-fluorophenyl)-14a-(1-methylcyclopropylsulfonylcarbamoyl)-5,16-dioxo-1′,2′,3,5,6,7,8,9,10,11,13a,14,14a,15,16,16a-hexadecahydro-1H-spiro[cyclopropa[e]pyrrolo[1,2-a][1,4]diazacyclopentadecine-2,3′-pyrano[2,3-c]quinoline-]-6-ylcarbamate]: 4.23 nM; for `CC1(S(=O)(=O)NC(=O)[C@@]23C[C@H]2/C=C\CCCCC[C@H](NC(=O)NC2CCCCC2)C(=O)N2C[C@@]4(CCc5c(c(-c6cccc(F)c6)nc6ccccc56)O4)C[C@H]2C(=O)N3)CC1` [Example 83, (2R,6S,12Z,13aS,14aR,16aS)-6-[(cyclohexylcarbamoyl)amino]-5′-(3-fluorophenyl)-N-[(1-methylcyclopropyl)sulfonyl]-5,16-dioxo-1,1′,2′,6,7,8,9,10,11,13a,14,15,16,16a-tetradecahydrospiro[cyclopropa[e]pyrrolo[1,2-a][1,4]diazacyclopentadecine-2,3′-pyrano[2,3-c]quinoline]-14a(5H)-carboxamide]: 3.71 nM.
In the case of `CC1(S(=O)(=O)NC(=O)[C@@]23C[C@H]2/C=C\CCCCC[C@H](NC(=O)CC(F)(F)F)C(=O)N2C[C@@]4(CCc5c(c(-c6cccc(F)c6)nc6ccccc56)O4)C[C@H]2C(=O)N3)CC1` [Example 24, (2R,6S,13aS,14aR,16aS,Z)-5′-(3-Fluorophenyl)-N-(1-methylcyclopropylsulfonyl)-5,16-dioxo-6-(3,3,3-trifluoropropanamido)-1′,2′,3,5,6,7,8,9,10,11,13a,14,14a,15,16, 16a-hexadecahydro-1H-spiro[cyclopropa[e]pyrrolo[1,2-a][1,4]diazacyclopentadecine-2,3′-pyrano[2,3-c]quinoline]-14a-carboxamide], in the assay with HCV genotype 1b replicon (Hepatitis C virus), the EC50 is 5.92 nM.
Same read-out and setting: the same measure for `Cc1ccc2nc(C)c3c(c2c1)CC[C@]1(C[C@H]2C(=O)N[C@]4(C(=O)O)C[C@H]4/C=C\CCCCC[C@H](NC(=O)OC(C)(C)C)C(=O)N2C1)O3` [Example 86, (2R,6S,12Z,13aS,14aR,16aS)-6-[(tert-butoxycarbonyl)amino]-5′,9′-dimethyl-5,16-dioxo-1,1′,2′,6,7,8,9,10,11,13a,14,15,16,16a-tetradecahydrospiro[cyclopropa[e]pyrrolo[1,2-a][1,4]diazacyclopentadecine-2,3′-pyrano[2,3-c]quinoline]-14a(5H)-carboxylic acid]: above 100 nM; for `CC1(S(=O)(=O)NC(=O)[C@@]23C[C@H]2/C=C\CCCCC[C@H](NC(=O)OC2CCCC2)C(=O)N2C[C@@]4(CCc5c(c(-c6cccc(F)c6)nc6ccccc56)O4)C[C@H]2C(=O)N3)CC1` [Example 81, cyclopentyl [(2R,6S,12Z,13aS,14aR,16aS)-5′-(3-fluorophenyl)-14a-{[(1-methylcyclopropyl)sulfonyl]carbamoyl}-5,16-dioxo-1,1′,2′,5,6,7,8,9,10,11,13a,14,14a,15,16,16a-hexadecahydrospiro[cyclopropa[e]pyrrolo[1,2-a][1,4]diazacyclopentadecine-2,3′-pyrano[2,3-c]quinolin]-6-yl]carbamate]: 1.33 nM.
In the case of `CCc1nc2ccc(OCCN3CCOCC3)cc2c2c1O[C@]1(CC2)C[C@H]2C(=O)N[C@]3(C(=O)NS(=O)(=O)C4(C)CC4)C[C@H]3/C=C\CCCCC[C@H](NC(=O)OCC(C)(C)C)C(=O)N2C1` [Example 510, 2,2-dimethylpropyl {(2R,6S,12Z,13aS,14aR,16aS)-5′-ethyl-14a-{[(1-methylcyclopropyl)sulfonyl]carbamoyl}-9′-[2-(morpholin-4-yl)ethoxy]-5,16-dioxo-1,1′,2′,5,6,7,8,9,10,11,13a,14,14a,15,16,16a-hexadecahydrospiro[cyclopropa[e]pyrrolo[1,2-a][1,4]diazacyclopentadecine-2,3′-pyrano[2,3-c]quinolin]-6-yl}carbamate], the half-inhibitory concentration (IC50) in assay [1] (IC50 [gt-1b], NS3/4A protease TRF assay, genotype 1b enzyme 0.2 nM, K+ salt) stood at 0.004 nM.
In assay [1] (IC50 [gt-1b] (nM), NS3/4A genotype 1b, enzyme 0.2 nM), `COc1ccc2nc(C3CC3)c3c(c2c1)C(F)(F)C[C@]1(C[C@H]2C(=O)N[C@]4(C(=O)NS(=O)(=O)C5(C)CC5)C[C@H]4/C=C\CCCCC[C@H](NC(=O)OC4CCCC4)C(=O)N2C1)O3` [Example 247, cyclopentyl [(2S,6S,12Z,13aS,14aR,16aS)-5′-cyclopropyl-1′,1′-difluoro-9′-methoxy-14a-{[(1-methylcyclopropyl)sulfonyl]carbamoyl}-5,16-dioxo-1,1′,2′,5,6,7,8,9,10,11,13a,14,14a,15,16,16a-hexadecahydrospiro[cyclopropa[e]pyrrolo[1,2-a][1,4]diazacyclopentadecine-2,3′-pyrano[2,3-c]quinolin]-6-yl]carbamate] registered a half-inhibitory concentration (IC50) of 0.013 nM.
In assay [1] (IC50 [gt-1b], NS3/4A protease TRF assay, genotype 1b enzyme 0.2 nM), `Cc1ccc2nc(C(F)(F)F)c3c(c2c1)CC[C@]1(C[C@H]2C(=O)N[C@]4(C(=O)NS(=O)(=O)C5(C)CC5)C[C@H]4/C=C\CCCCC[C@H](NC(=O)O[C@@H](C)C(C)C)C(=O)N2C1)O3` [Example 396, (2S)-3-methylbutan-2-yl [(2R,6S,12Z,13aS,14aR,16aS)-9′-methyl-14a-{[(1-methylcyclopropyl)sulfonyl]carbamoyl}-5,16-dioxo-5′-(trifluoromethyl)-1,1′,2′,5,6,7,8,9,10,11,13a,14,14a,15,16,16a-hexadecahydrospiro[cyclopropa[e]pyrrolo[1,2-a][1,4]diazacyclopentadecine-2,3′-pyrano[2,3-c]quinolin]-6-yl]carbamate] gave an IC50 of 0.009 nM.

For orientation: EC50 means the concentration that produces a half-maximal response. A word on the IC50: it is the point on the concentration scale where inhibition reaches its midpoint.

(Values after US8987195B2 (priority 2012, dated 2015).)
